Assay results reported in ChEMBL document CHEMBL1143496, “Privileged structure based ligands for melanocortin receptors--substituted benzylic piperazine derivatives” (Bioorg Med Chem Lett, 2005).

Molecular target: Melanocortin receptor 4 (Homo sapiens, UniProt P32245)
Assay: Inhibition of [125I]-NDP MSH binding to human Melanocortin 4 receptor

Melanocortin receptor 4, sequence (P32245 whole entry): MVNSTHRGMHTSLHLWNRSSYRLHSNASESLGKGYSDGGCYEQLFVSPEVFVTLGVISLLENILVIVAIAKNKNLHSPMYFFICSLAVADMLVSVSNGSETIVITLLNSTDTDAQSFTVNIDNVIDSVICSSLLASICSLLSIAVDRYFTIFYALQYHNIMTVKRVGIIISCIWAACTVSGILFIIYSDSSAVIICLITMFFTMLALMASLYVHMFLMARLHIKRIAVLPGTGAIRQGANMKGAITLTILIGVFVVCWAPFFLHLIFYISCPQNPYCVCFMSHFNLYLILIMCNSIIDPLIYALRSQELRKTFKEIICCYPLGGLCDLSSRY

Row | SMILES | Ki
1 | CCN(CC)CC(CCCc1ccccc1)N1CCN(C)CC1 (configuration not stated) | 110 nM
2 | CCN(CC)CC(c1cccc(C(F)(F)F)c1)N1CCN(C)CC1 (configuration not stated) | 150 nM
3 | CC(c1ccccc1)N1CCN(C)CC1 (configuration not stated) | 700 nM
4 | CCN(CC)CC(CCc1ccccc1)N1CCN(C)CC1 (configuration not stated) | 130 nM
5 | CCN(CC)CC(c1ccc(F)cc1F)N1CCN(C)CC1 (configuration not stated) | 100 nM
6 | COC(=O)NCC(c1ccccc1F)N1CCN(C)CC1 (configuration not stated) | 483 nM
7 | CCN(CC(c1ccccc1F)N1CCN(C)CC1)C(C)=O (configuration not stated) | 106 nM
8 | CCN(CC)C[C@H](c1ccccc1)N1CCN(C)CC1 | 190 nM
9 | CCN(CC)C(=O)C(c1ccccc1F)N1CCN(C)CC1 (configuration not stated) | 125 nM
10 | CCN(CC)CC(c1ccccc1Cl)N1CCN(C)CC1 (configuration not stated) | 70 nM
11 | CCN(CC)CC(c1ccccc1C)N1CCN(C)CC1 (configuration not stated) | 70 nM
12 | CCN(CC)CC(c1ccccc1F)N1CCN(C)CC1 (configuration not stated) | 20 nM
13 | CN1CCN(C(CNS(C)(=O)=O)c2ccccc2F)CC1 (configuration not stated) | 472 nM
14 | CCN(CC(c1ccccc1F)N1CCN(C)CC1)C(=O)OC (configuration not stated) | 261 nM
15 | CCN(CC(c1ccccc1F)N1CCN(C)CC1)S(C)(=O)=O (configuration not stated) | 157 nM
16 | CC(=O)NCC(c1ccccc1F)N1CCN(C)CC1 (configuration not stated) | 467 nM
17 | CCN(CC)CC(c1ccc(C(F)(F)F)cc1)N1CCN(C)CC1 (configuration not stated) | 200 nM
18 | CCN(CC)CC(c1c(F)cccc1F)N1CCN(C)CC1 (configuration not stated) | 150 nM
19 | CCN(CC)C[C@@H](c1ccccc1F)N1CCN(C)CC1 | 111 nM
20 | CN1CCN(Cc2ccccc2)CC1 | 2000 nM
21 | CCN(CC)CC(c1ccccc1C(F)(F)F)N1CCN(C)CC1 (configuration not stated) | 40 nM
22 | CCN(CC)CC(c1ccccc1OC)N1CCN(C)CC1 (configuration not stated) | 190 nM
23 | CCN(CC)CC(Cc1ccccc1)N1CCN(C)CC1 (configuration not stated) | 40 nM
24 | CCN(CC)C[C@@H](c1ccccc1)N1CCN(C)CC1 | 50 nM
25 | CCN(CC)C[C@H](c1ccccc1F)N1CCN(C)CC1 | 14 nM
26 | CCN(CC)Cc1ccccc1N1CCN(C(=O)[C@@H](Cc2ccc(Cl)cc2)NC(=O)[C@H]2Cc3ccccc3CN2)CC1 | 14 nM
27 | CCN(CC)CC(c1ccccc1)N1CCN(C)CC1 (configuration not stated) | 90 nM
